This note sets out measurements from ChEMBL document CHEMBL5131471, “Design, synthesis and mechanism studies of novel dual PARP1/BRD4 inhibitors against pancreatic cancer” (Eur J Med Chem, 2022).

Active and inactive are the calls of the source. The rule behind the calls is not given here.

The test system of data set [1] is Mus musculus. Nature of the data set: Upregulation of CDK6 expression in nude mouse xenografted with human SW1990 cells at 45 mg/kg, ip measured after 4 days by Western blot analysis. Conditions: time 4.0 day. The format is functional, organism-based. (Xenograft models place foreign cells or tissue in a host animal.)
For data set [2], the system named is SW1990. The data set is described as follows: Induction of DNA damage in human SW1990 cells assessed as increase in tail DNA at 6 uM incubated for 4 days by comet assay. The format is functional, cell-based. The following applies: time 4.0 day.
For data set [3], the system named is SW1990. The data set is described as follows: Effect on CCNB1 gene expression in human SW1990 cells at 6 uM by Q-PCR analysis. The format is functional, cell-based.
In data set [4] the test system is SW1990. The data set is described as follows: Effect on CDK6 gene expression in human SW1990 cells at 6 uM by Q-PCR analysis. The format is functional, cell-based.
The subject of data set [5] is SW1990. Nature of the data set: Effect on TOPBP1 gene expression in human SW1990 cells at 6 uM by Q-PCR analysis. The format is functional, cell-based.
The test system of data set [6] is SW1990. Nature of the data set: Downregulation of Ki67 expression in human SW1990 cells at 45 mg/kg, ip measured after 28 days by immuno histochemical staining based fluorescence microscopic analysis. The format is functional, organism-based. The following applies: time 28.0 day.
Data set [7] has as its system SW1990. Nature of the data set: Upregulation of BRCA2 expression in human SW1990 cells at 6 uM measured after 4 days by Western blot analysis. Type of data set: functional, cell-based. Conditions: time 4.0 day. A general note: A western blot detects proteins with antibodies after separation by electrophoresis.
For data set [8], the system named is SW1990. Nature of the data set: Induction of BRCA2 accumulation in nucleus of human SW1990 cells at 6 uM measured after 4 days by Western blot analysis. The format is functional, cell-based. The following applies: time 4.0 day.
Data set [9] relates to SW1990. Nature of the data set: Induction of Rad51 accumulation in nucleus of human SW1990 cells at 6 uM measured after 4 days by Western blot analysis. The format is functional, cell-based. The following applies: time 4.0 day.
Data set [10] concerns SW1990. Nature of the data set: Induction of cell cycle arrest in human SW1990 cells assessed as accumulation of cells at G0/G1 phase at 4 uM incubated for 4 days by propidium iodide staining based flow cytometry (reference value: 64.79%). The format is functional. Conditions: time 4 day. For orientation: In flow cytometry, cells or beads pass a laser one at a time.
The nature of data set [11]: Toxicity in nude mouse xenografted with human SW1990 cells assessed as heart damage at 15 mg/kg, ip administered for 28 days by H and E staining based fluorescence microscopic analysis. Conditions: in vivo, 672 h, time 28 day. The format is organism-based.
The nature of data set [12]: Toxicity in nude mouse xenografted with human SW1990 cells assessed as liver damage at 15 mg/kg, ip administered for 28 days by H and E staining based fluorescence microscopic analysis. Type of data set: organism-based. Conditions: in vivo, 672 h, time 28 day.
Data set [13] is described as follows: Toxicity in nude mouse xenografted with human SW1990 cells assessed as kidney damage at 15 mg/kg, ip administered for 28 days by H and E staining based fluorescence microscopic analysis. Type of data set: organism-based. The following applies: in vivo, 672 h, time 28 day.
Data set [14] is described as follows: Toxicity in nude mouse xenografted with human SW1990 cells assessed as kidney damage at 15 mg/kg, ip administered for 28 days in presence of 45 mg/kg Olaparib by H and E staining based fluorescence microscopic analysis. The format is organism-based. The following applies: in vivo, 672 h, time 28 day.
Data set [15] concerns SW1990. The data set is described as follows: Effect on HEXIM1 gene expression in human SW1990 cells at 4 uM by Q-PCR analysis. Type of data set: functional, cell-based.
In data set [16] the test system is SW1990. Nature of the data set: Effect on FOXO1 gene expression in human SW1990 cells at 4 uM by Q-PCR analysis. The format is functional, cell-based.
Data set [17] relates to SW1990. Nature of the data set: Effect on FOXM1 gene expression in human SW1990 cells at 4 uM by Q-PCR analysis. The format is functional, cell-based.
Data set [18] has as its system SW1990. The data set is described as follows: Effect on CDC25A gene expression in human SW1990 cells at 1 uM in presence of Olaparib by Q-PCR analysis. The format is functional, cell-based.
The test system of data set [19] is SW1990. Nature of the data set: Effect on CDK1 to 2 gene expression in human SW1990 cells at 1 uM in presence of Olaparib by Q-PCR analysis. The format is functional, cell-based.
The test system of data set [20] is SW1990. Nature of the data set: Effect on FOXM1 gene expression in human SW1990 cells at 1 uM in presence of Olaparib by Q-PCR analysis. Type of data set: functional, cell-based.
The subject of data set [21] is SW1990. The data set is described as follows: Effect on ALDH1A1 gene expression in human SW1990 cells at 1 uM in presence of Olaparib by Q-PCR analysis. Type of data set: functional, cell-based.
Data set [22] concerns SW1990. Nature of the data set: Downregulation of Ki67 expression in human SW1990 cells at 15 mg/kg, ip measured after 28 days by immuno histochemical staining based fluorescence microscopic analysis. Type of data set: functional, organism-based. Conditions: time 28.0 day.
Data set [23] relates to MDA-MB-231. The data set is described as follows: Antiproliferative activity against BRCA-proficient human MDA-MB-231 cells assessed as inhibition of cell growth measured after 7 days by MTT assay. The format is functional, cell-based. Conditions: MDA-MB-231, 168 h.
A short description of data set [24]: Toxicity in nude mouse xenografted with human SW1990 cells assessed as heart damage at 30 mg/kg, ip administered for 28 days by H and E staining based fluorescence microscopic analysis. The following applies: in vivo, 672 h, time 28 day. The format is organism-based.
The subject of data set [25] is Mus musculus. The data set is described as follows: Inhibition of PARP1 expression in nude mouse xenografted with human […] cells at 30 mg/kg, ip administered for 28 days by DAPI staining based laser confocal microscopic analysis. The format is functional, organism-based. The following applies: time 28.0 day.
In data set [26] the test system is Mus musculus. The data set is described as follows: Inhibition of PARP1 expression in nude mouse xenografted with human […] cells at 30 mg/kg, ip administered for 28 days by Q-PCR analysis. Type of data set: functional, organism-based. The following applies: time 28.0 day.
Data set [27] deals with SW1990. The data set is described as follows: Downregulation of BRD4 expression in human SW1990 cells at 2 uM measured after 4 days by Western blot analysis. The format is functional, cell-based. Conditions: time 4.0 day.
Data set [28] has as its system SW1990. The data set is described as follows: Induction of cell cycle arrest in human SW1990 cells assessed as accumulation of cells at S phase at 1 uM incubated for 4 days by propidium iodide staining based flow cytometry (reference value: 29.32%). The format is functional. Conditions: time 4 day.
Data set [29] concerns SW1990. Nature of the data set: Induction of cell cycle arrest in human SW1990 cells assessed as accumulation of cells at G0/G1 phase at 2 uM incubated for 4 days by propidium iodide staining based flow cytometry (reference value: 64.79%). Type of data set: functional. Conditions: time 4 day.
For data set [30], the system named is Mus musculus. The data set is described as follows: Inhibition of CCND1 expression in nude mouse xenografted with human SW1990 cells at 30 mg/kg, ip measured after 4 days by Q-PCR analysis. Type of data set: functional, organism-based. The following applies: time 4.0 day.
For data set [31], the system named is Mus musculus. Nature of the data set: Inhibition of CCND1 expression in nude mouse xenografted with human SW1990 cells at 30 mg/kg, ip measured after 4 days by Western blot analysis. Type of data set: functional, organism-based. The following applies: time 4.0 day.
Data set [32] has as its system SW1990. Nature of the data set: Inhibition of homologous recombinant repair in human SW1990 cells assessed as reversal of Olaparib-induced FOXM1 expression at 1 to 2 uM after 4 days by Western blot analysis. The format is functional, cell-based. Conditions: dose 1-2 µM, time 4.0 day.
In data set [33] the test system is Mus musculus. The data set is described as follows: Inhibition of homologous recombinant repair in nude mouse xenografted with human SW1990 cells assessed as reversal of olaparib-induced MDC1 expression at 30 mg/kg, ip measured after 4 days by Western blot analysis. The following applies: time 4.0 day. Type of data set: functional, organism-based.
Data set [34] concerns Mus musculus. Nature of the data set: Inhibition of homologous recombinant repair in nude mouse xenografted with human SW1990 cells assessed as reversal of olaparib-induced HEXIM1 expression at 30 mg/kg, ip measured after 4 days by Western blot analysis. The format is functional, organism-based. The following applies: time 4.0 day.
Data set [35] concerns SW1990. Nature of the data set: Effect on c-Myc gene expression in human SW1990 cells at 1 to 2 uM by Q-PCR analysis. The format is functional, cell-based. Conditions: dose 1-2 µM.
For data set [36], the system named is SW1990. Nature of the data set: Effect on CCNB1 gene expression in human SW1990 cells at 1 to 2 uM by Q-PCR analysis. Type of data set: functional, cell-based. The following applies: dose 1-2 µM.
The test system of data set [37] is SW1990. Nature of the data set: Effect on BRCA2 gene expression in human SW1990 cells at 1 to 2 uM by Q-PCR analysis. The format is functional, cell-based. The following applies: dose 1-2 µM.
The subject of data set [38] is SW1990. Nature of the data set: Effect on Rad51 gene expression in human SW1990 cells at 1 to 2 uM by Q-PCR analysis. Type of data set: functional, cell-based. The following applies: dose 1-2 µM.
The test system of data set [39] is SW1990. The data set is described as follows: Effect on ALDH1A1 gene expression in human SW1990 cells at 1 to 2 uM by Q-PCR analysis. The format is functional, cell-based. The following applies: dose 1-2 µM.
Data set [40] has as its system SW1990. The data set is described as follows: Effect on MDC1 gene expression in human SW1990 cells at 1 to 2 uM by Q-PCR analysis. The format is functional, cell-based. Conditions: dose 1-2 µM.

With `O=C(c1cc(Cc2n[nH]c(=O)c3ccccc23)ccc1F)N1CCN(C(=O)C2CC2)CC1` [OLAPARIB], the outcome in [1], in data set [2], in data set [3], in data set [4], in data set [5] and in data set [6] was Active. Also, the outcome in data set [7], in data set [8] and in data set [9] was Active.
With `Cc1sc2c(c1C)C(c1ccc(Cl)cc1)=N[C@@H](CC(=O)OC(C)(C)C)c1nnc(C)n1-2`, the Activity in data set [10] is 75.06%; in data set [11], “Non-Toxic”; in data set [12], “Non-Toxic”; in data set [13], “Non-Toxic”; in [14] it was “Non-Toxic”. Moreover, the outcome in data set [15], in data set [16], in [17], in [18], in data set [19] and in [20] was Active. Moreover, the outcome in data set [21] and in data set [22] was Active.
The term IC50 denotes the point on the concentration scale where inhibition reaches its midpoint. On to `Cc1noc(C)c1-c1ccc2c(c1)C(c1ccccc1)N(Cc1nc3c(C(N)=O)cccc3[nH]1)C(=O)N2C` (stereo not given), for which the concentration for half-maximal inhibition (IC50) in [23] was found to be 140 nM. The values for the Activity entry in data set [24], in data set [28] and in data set [29] were “Non-Toxic”, 14.98% and 78.17%, respectively. Moreover, the inhibition entry in data set [25], in [26], in data set [30], in data set [31], in data set [32] and in data set [33] was “Active” throughout. For the same molecule, the inhibition entry in data set [34] was “Active”. The outcome in data set [27], in [35], in data set [36], in data set [37], in [38] and in data set [39] was Active. Besides, in data set [40], the outcome was Active.
